Columns and labels:
Settings in all cases: incubation time: 72 h
HCC1599 [1] = assay: normalised response (% of control), CellTox Green; higher = less cell death (100 = DMSO, 0 = benzethonium chloride kill control)
How it was run: (§1)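 A 20 µl suspension of breast cancer cells was seeded into each well of 384-well plates containing compound at 5 concentrations in 10-fold steps over a compound-specific 10,000-fold range. After 72 h incubation, CellTox Green fluorescence (485/520 nm) was read first, and CellTiter-Glo luminescence was read after 10 min at room temperature. Each plate was normalised against 0.1 % DMSO (100) and a positive kill control (0), and each value is the normalised signal at one concentration.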

BT-549 [2] = assay: as above
How it was run: as §1

MDA-MB-436 [3] = assay: as above
How it was run: as §1

CAL-51 [4] = assay: as above
How it was run: as §1

MDA-MB-468 [5] = assay: as above
How it was run: as §1

DU-4475 [6] = assay: as above
How it was run: as §1

BT-474 [7] = assay: as above
How it was run: as §1

MDA-MB-231 [8] = assay: as above
How it was run: as §1

MCF-10A [9] = assay: as above
How it was run: as §1

MFM-223 [10] = assay: as above
How it was run: as §1

HCC1143 [11] = assay: as above
How it was run: as §1

MDA-MB-453 [12] = assay: as above
How it was run: as §1

Hs578T [13] = assay: as above
How it was run: as §1

CAL-148 [14] = assay: as above
How it was run: as §1

CAL-85-1 [15] = assay: as above
How it was run: as §1

HCC1937 [16] = assay: as above
How it was run: as §1

HDQ-P1 [17] = assay: as above
How it was run: as §1

CAL-120 [18] = assay: as above
How it was run: as §1

HCC1599 [19] = assay: normalised response (% of control), CellTiter-Glo; higher = more viable cells (100 = DMSO, 0 = benzethonium chloride kill control)
Method: (§2)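 DSRT, 72 h incubation, CellTox Green / CellTiter-Glo readout. Signal is normalised to DMSO and benzethonium chloride controls. Value is the normalised response at the highest dose.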

BT-549 [20] = assay: as above
Method: as §2

MDA-MB-436 [21] = assay: as above
Method: as §2

CAL-51 [22] = assay: as above
Method: as §2

MDA-MB-468 [23] = assay: as above
Method: as §2

DU-4475 [24] = assay: as above
Method: as §2

BT-474 [25] = assay: as above
Method: as §2

MDA-MB-231 [26] = assay: as above
Method: as §2

MCF-10A [27] = assay: as above
Method: as §2

MFM-223 [28] = assay: as above
Method: as §2

HCC1143 [29] = assay: as above
Method: as §2

MDA-MB-453 [30] = assay: as above
Method: as §2

Hs578T [31] = assay: as above
Method: as §2

SK-BR-3 = assay: as above
Method: as §2

CAL-148 [32] = assay: as above
Method: as §2

CAL-85-1 [33] = assay: as above
Method: as §2

HCC1937 [34] = assay: as above
Method: as §2

HDQ-P1 [35] = assay: as above
Method: as §2

CAL-120 [36] = assay: as above
Method: as §2

Row | Compound | normalised response (HCC1599 [1]) | normalised response (BT-549 [2]) | normalised response (MDA-MB-436 [3]) | normalised response (CAL-51 [4]) | normalised response (MDA-MB-468 [5]) | normalised response (DU-4475 [6]) | normalised response (BT-474 [7]) | normalised response (MDA-MB-231 [8]) | normalised response (MCF-10A [9]) | normalised response (MFM-223 [10]) | normalised response (HCC1143 [11]) | normalised response (MDA-MB-453 [12]) | normalised response (Hs578T [13]) | normalised response (CAL-148 [14]) | normalised response (CAL-85-1 [15]) | normalised response (HCC1937 [16]) | normalised response (HDQ-P1 [17]) | normalised response (CAL-120 [18]) | normalised response (HCC1599 [19]) | normalised response (BT-549 [20]) | normalised response (MDA-MB-436 [21]) | normalised response (CAL-51 [22]) | normalised response (MDA-MB-468 [23]) | normalised response (DU-4475 [24]) | normalised response (BT-474 [25]) | normalised response (MDA-MB-231 [26]) | normalised response (MCF-10A [27]) | normalised response (MFM-223 [28]) | normalised response (HCC1143 [29]) | normalised response (MDA-MB-453 [30]) | normalised response (Hs578T [31]) | normalised response (SK-BR-3) | normalised response (CAL-148 [32]) | normalised response (CAL-85-1 [33]) | normalised response (HCC1937 [34]) | normalised response (HDQ-P1 [35]) | normalised response (CAL-120 [36])
1 | C=CC(=O)Nc1cc2c(Nc3ccc(F)c(Cl)c3)ncnc2cc1OCCCN1CCOCC1 [Canertinib] (10000 nM) | 111% | 55.1% | 87.1% | 5.47% | -36.9% | 89.5% | 55.4% | 13.5% | -28.8% | 26.9% | 84.5% | 87.6% | -21.7% | 65.4% | -11% | 80.3% | 37.8% | 31% | 66.4% | 4.73% | 22.2% | 3.06% | 2.49% | 74.1% | 15.9% | 5% | 0.13% | 26.4% | 24.3% | 25.5% | 17.4% | 24.4% | 42.9% | 3.6% | 14.5% | 1.5% | 26.6%
2 | COc1cc2c(Oc3ccc4[nH]c(C)cc4c3F)ncnc2cc1OCCCN1CCCC1 [Cediranib] (1000 nM) | 112% | 97.4% | 94.6% | 96.8% | 153% | 103% | 95.7% | 117% | 91.5% | 91.4% | 123% | 105% | 127% | 101% | 78.4% | 114% | 102% | 88.1% | 92.8% | 83.6% | 100% | 128% | 90.8% | 95.5% | 104% | 105% | 70.5% | 56.6% | 99.8% | 103% | 84.7% | 106% | 110% | 100% | 91.7% | 80.8% | 90.4%
3 | Cc1ccc(-c2cc(C(F)(F)F)nn2-c2ccc(S(N)(=O)=O)cc2)cc1 [Celecoxib] (10000 nM) | 103% | 113% | 99.8% | 107% | 62.7% | 99.5% | 93% | 104% | 82.2% | 95.2% | 68.4% | 99% | 68.1% | 101% | 104% | 116% | 105% | 101% | 109% | 104% | 104% | 118% | 103% | 101% | 92.9% | 96.8% | 108% | 93.5% | 108% | 94.7% | 97.3% | 97.4% | 99.9% | 102% | 101% | 89.8% | 106%
4 | O=C(/C=C/c1cccnc1)NCCCCC1CCN(C(=O)c2ccccc2)CC1 [Daporinad] (1000 nM) | 90.5% | 91.1% | 97.3% | 108% | 49.6% | 101% | 97.5% | 117% | 93.1% | 88.1% | 105% | 99.5% | 73.1% | 98.8% | 93.5% | 67.6% | 108% | 101% | 0.76% | 103% | 37.5% | 138% | 0.79% | 4.62% | 19.9% | 19.2% | 9.14% | 4.89% | 13.2% | 14.8% | 6.81% | 110% | 51.5% | 14.3% | 17.5% | 15.9% | 14%
5 | Nc1ncn([C@H]2C[C@H](O)[C@@H](CO)O2)c(=O)n1 [Decitabine] (10000 nM) | 113% | 130% | 73.2% | 65.7% | 90% | 104% | 94% | 126% | 92.6% | 90.5% | 117% | 103% | 123% | 95.5% | 70% | 113% | 110% | 103% | 94.1% | 75.2% | 88.7% | 82.3% | 31.5% | 86.2% | 87.4% | 93% | 83.8% | 93.3% | 83.6% | 97.7% | 89.4% | 77.7% | 82.6% | 84.5% | 74.9% | 87.8% | 83.9%
6 | Nc1ccccc1NC(=O)c1ccc(CNC(=O)OCc2cccnc2)cc1 [Entinostat] (10000 nM) | 75.2% | 69.9% | 38.9% | 29% | -141% | 73.1% | 54.9% | 29.8% | 90.9% | 74.4% | 104% | 90.6% | 110% | 46.4% | 8.15% | 43.6% | 102% | 88.6% | 32.3% | 31.6% | 71.6% | 31.8% | 19.1% | 5.86% | 42% | 39.1% | 82.9% | 18% | 19% | 21.6% | 48.3% | 14.2% | 29.8% | 41.7% | 67.4% | 73.2% | 73.2%
